What all share (type): cell-based
Assay [1] concerns goldfish retinal ganglion cells. Kind of assay: Goldfish retinal ganglion cell culture, axon outgrowth bioassay. Particulars: goldfish RGCs; for effect on axon growth induced by AF-1: 6-TG 20 μM, NBTI 20 μM, H89 5 μM, FIG. 2, 4; for effect on axon growth induced by AF-1 / axon growth induced by cAMP-elevating agent on its own: Sp-cAMPs 150 μM; for axon growth induced by cAMP-elevating agent on its own: FIG. 4; for axon outgrowth in response to monosaccharides: sugar alone, 50 or 100 μM, D-configuration, FIG. 7a. On the procedure:
Goldfish retinal ganglion cells are prepared as described in PCT application serial no. PCT/US98/03001, the contents of which are incorporated herein by reference, and contacted with a hexose derivative such as mannose. The ability of the hexose derivative to stimulate axonal outgrowth from the goldfish retinal ganglion cells is monitored as described in PCT application serial no. PCT/US98/03001.
Goldfish retinal ganglion cell cultures. Mammalian AF-1 was initially characterized in bioassays using dissociated goldfish retinal ganglion cells (RGCs). In brief, Comet variety goldfish (Mt. Parnell Fisheries, PA) were dark-adapted, cooled to 4° C., and killed by cervical transection. Retinas were dissected and dissociated by incubation in papain followed by a series of trituration steps that result in an RGC-enriched cell suspension (Schwartz & Agronoff,; Schwalb et al., 1995). Approximately 500 RGCs per well were plated together with the experimental samples to be tested in defined, serum-free media containing Leibovitz' L15 media (Gibco BRL) plus N1 and N2 supplements (Bottenstein, Saito), antioxidants, and bovine serum albumin as described in detail elsewhere (Schwalb et al., 1995). In each experiment, 4 wells of each sample were distributed in 24-well plates in a blinded fashion so that the person evaluating axon outgrowth was unaware of the type of sample present in each well. Experiments included a positive control (previously validated goldfish AF-1 or inosine) and a negative control (defined media alone), likewise distributed on the plate in quadruplicate in a blinded fashion. After 6 days in culture at 21° C., axon outgrowth, operationally defined as the percent of RGCs that extended an axon≧5 cell diameters in length, was evaluated in approximately 150 consecutively encountered RGCs per well. […] Data are presented as normalized means ± SEM. All experiments were repeated at least 3 times.

The test system is the same in assay [2]. The experiment in a line: Goldfish retinal ganglion cell culture, cell survival. To be noted: MH 10 mM, sugars at low micromolar concentrations. On the procedure: Goldfish retinal ganglion cell cultures. Mammalian AF-1 was initially characterized in bioassays using dissociated goldfish retinal ganglion cells (RGCs). In brief, Comet variety goldfish (Mt. Parnell Fisheries, PA) were dark-adapted, cooled to 4° C., and killed by cervical transection. Retinas were dissected and dissociated by incubation in papain followed by a series of trituration steps that result in an RGC-enriched cell suspension (Schwartz & Agronoff,; Schwalb et al., 1995). Approximately 500 RGCs per well were plated together with the experimental samples to be tested in defined, serum-free media containing Leibovitz' L15 media (Gibco BRL) plus N1 and N2 supplements (Bottenstein, Saito), antioxidants, and bovine serum albumin as described in detail elsewhere (Schwalb et al., 1995). In each experiment, 4 wells of each sample were distributed in 24-well plates in a blinded fashion so that the person evaluating axon outgrowth was unaware of the type of sample present in each well. Experiments included a positive control (previously validated goldfish AF-1 or inosine) and a negative control (defined media alone), likewise distributed on the plate in quadruplicate in a blinded fashion. After 6 days in culture at 21° C., axon outgrowth, operationally defined as the percent of RGCs that extended an axon≧5 cell diameters in length, was evaluated in approximately 150 consecutively encountered RGCs per well. Data were analyzed by averaging axon growth in the 4 wells for each sample, subtracting the level of growth found in negative controls (typically 3-5%), and normalizing by the net growth in positive controls (usually 20-40%). Data are presented as normalized means ± SEM. All experiments were repeated at least 3 times.

For assay [3], the system named is rat retinal ganglion cells. The experiment in a line: Rat retinal ganglion cell culture, axon outgrowth. To be noted: rat RGCs; for axon outgrowth, agent by itself: 3 days, no other factor added, forskolin 5 μM in FIG. 9a; for effect on axon growth induced by the low molecular weight vitreous factor (VE<3): FIG. 3a; for axon outgrowth in the presence of forskolin: compared to forskolin alone, glucose up to 5 mM, mannose-6-phosphate up to 10 mM, 9c.
Description: (§1) Rat retinal ganglion cell cultures. Retinal ganglion cells were identified by retrograde labeling with Fluorogold (FG: Fluorochrome, Inc.). […] After allowing 7 days for FG to be retrogradely transported up the optic nerve, rats were killed, eyes were removed, and the retinas dissected. Retinas were dissociated with papain treatment followed by trituration. Mixed cultures containing 100-150 FG-labeled RGCs per well were maintained in 24 well plates in a defined, serum-free media (Minimal Essential Media containing NaHCO3,) at 37° C. at 5% CO2 for 3 days.

Assay [4] relates to rat retinal ganglion cells. Kind of assay: Rat retinal ganglion cell culture, cell survival.
Description: as §1

The values that follow come from patent US7666843B2, “Methods and compositions for treatment of neurological disorder” (Children's Medical Center Corporation, priority 2002, dated 2010).

Entries after “also recorded” stand apart in the source; their conditions may differ. Where two headings read alike, the source gives them in different places.

Take `O=C(CO)[C@@H](O)[C@@H](O)[C@H](O)[C@H](O)CO` [MH, mannoheptulose]: the “effect on mannose-induced axon outgrowth” value in assay [1] (KT5720 1 μM, MH 10 mM, dBcAMP, late fraction with 50 μM mannose) was “had no effect on outgrowth induced by glucose or mannose; also recorded: has no effect on outgrowth induced by glucose or mannose”. Besides, the “effect on glucose-induced axon outgrowth” value in assay [1] (glucose 10 μM (50 μM with late fraction), dBcAMP 1 mM, forskolin 10 μM, Rp-cAMPs 100 μM, 3-O-MG 100:1, 2-DG 1 mM, MH 10 mM) was “had no effect on outgrowth induced by glucose or mannose; also recorded: has no effect on outgrowth induced by glucose or mannose”. Also, the “cell survival (viable RGCs per field)” value in assay [2] was “detrimental to cell survival; also recorded: decreases cell survival”.
For the compound `Nc1ncnc2c1ncn2[C@@H]1O[C@@H]2COP(O)(=S)O[C@H]2[C@H]1O` (stereo partly shown) [Sp-cAMPs], the “effect on axon growth induced by AF-1” value is “non-statistically significant decrease in outgrowth” in assay [1] (forskolin 10 μM, Rp-cAMPs 100 μM) and “not enhanced; also recorded: reduced the level of outgrowth” in assay [1] (forskolin 10 μM, Rp-cAMPs 100 μM, listed as Sp-cAMP-s). Further, the “axon growth induced by cAMP-elevating agent on its own” value was “Neither forskolin (10 μM) nor Sp-cAMPs (150 μM) induced growth on its own” in assay [1] (forskolin 10 μM) and “Neither forskolin nor Sp-cAMP-s by itself stimulated axon growth” in assay [1] (forskolin 10 μM, listed as Sp-cAMP-s). Also, the “axon outgrowth, agent by itself” value in assay [3] is given as “little effect on outgrowth”. Also, the “effect on axon growth induced by the low molecular weight vitreous factor (VE<3)” value in assay [3] is on record as “greatly potentiated”; in assay [3] (listed as Sp-cAMP-s), “strongly potentiates”.
As for `O=C[C@H](O)[C@@H](O)[C@H](O)[C@H](O)CO` [glucose, D-glucose], in assay [1], the “axon outgrowth in response to monosaccharides” value is reported as “stimulated as much outgrowth as the low molecular weight factor; also recorded: induced axon growth”. For the same compound, the “level of axon growth relative to that seen with the vitreous extract” value in assay [1] (sugar by itself, FIG. 7d) is listed as “about 70%”. Further, in assay [2], the “cell survival (viable RGCs per field)” value was “no effect on cell survival; also recorded: not related to any changes in cell survival”. For the same compound, the “axon outgrowth in the presence of forskolin” value was “failed to induce growth above the level of forskolin alone; also recorded: no effect whatsoever” in assay [3] (with forskolin, FIG. 9a) and “inactive” in assay [3] (with forskolin, FIG. 9a, listed as Glucose). The “effect of added glucose on mannose-induced growth” value in assay [3] (with forskolin, high concentrations of glucose, FIG. 9a) is given as “not augmented further; also recorded: not altered”.
On to `O=C[C@@H](O)[C@@H](O)[C@H](O)[C@H](O)CO` [mannose, D-mannose], for which the EC50 in assay [1] (Carassius auratus, FIG. 7c, read-out: ED50 of axon outgrowth) was approximately 10 µM; in assay [3] (in the presence of forskolin, data not shown, read-out: ED50 of axon outgrowth), approximately 10 µM. The “concentration at which the effect on axon outgrowth saturates” value in assay [1] (FIG. 7c) lay in the range of 25 to 50 µM. Further, the “axon outgrowth in response to monosaccharides” value in assay [1] is given as “stimulated as much outgrowth as the low molecular weight factor; also recorded: induced axon growth”. Moreover, the “cell survival (viable RGCs per field)” value in assay [2] was “no effect on cell survival; also recorded: not related to any changes in cell survival”; in assay [4], “not related to cell survival; also recorded: independent of any changes in cell survival”; in assay [4] (listed as D-mannose) it was “unrelated to changes in cell survival”. Further, the “axon outgrowth, agent by itself” value in assay [3] is “marginally significant response”; in assay [3] (listed as D-mannose) it was “little effect”; in assay [3] (listed as Mannose), “small, marginally significant level of outgrowth”. In addition, the “increase of axon outgrowth over baseline” value in assay [3] (in the presence of forskolin) is 3 fold. For the same compound, the “axon outgrowth in the presence of forskolin” value in assay [3] (with forskolin, FIG. 9a) was “more than doubled the level axon growth induced by forskolin alone; also recorded: striking increase in outgrowth; also recorded: respond strongly”.
